Assay results from ChEMBL document CHEMBL4808249, “Total synthesis and biological evaluation of 7-hydroxyneolamellarin A as hypoxia-inducible factor-1α inhibitor for cancer therapy” (Bioorg Med Chem Lett, 2021).
Values belong to the molecule of their own block, whether it stands above or below them. Active and inactive are the calls of the source. The calls are words filed in the database; no cut-off is given here.

Assays:
[1] = Toxicity in BALB/c mouse xenografted with mouse 4T1 cells assessed as effect on spleen morphology at 15 mg/kg, ip administered every 2 days starting from day 7 post-inoculation and measured on day 24 by Hematoxyin-eosin staining based analysis; format: organism-based; settings: in vivo, 432 h, time 18 day
[2] = Toxicity in BALB/c mouse xenografted with mouse 4T1 cells assessed as effect on heart morphology at 15 mg/kg, ip administered every 2 days starting from day 7 post-inoculation and measured on day 24 by Hematoxyin-eosin staining based analysis; format: organism-based; settings: in vivo, 432 h, time 18 day
[3] = Toxicity in BALB/c mouse xenografted with mouse 4T1 cells assessed as effect on kidney morphology at 15 mg/kg, ip administered every 2 days starting from day 7 post-inoculation and measured on day 24 by Hematoxyin-eosin staining based analysis; format: organism-based; settings: in vivo, 432 h, time 18 day
[4] = Toxicity in BALB/c mouse xenografted with mouse 4T1 cells assessed as effect on body weight at 15 mg/kg, ip administered every 2 days starting from day 7 post-inoculation and measured on day 24; format: organism-based; settings: in vivo, 432 h, time 18 day
4T1 [5] = assay: Antitumor activity against mouse 4T1 cells xenografted in BALB/c mouse assessed as tumor growth inhibition at 15 mg/kg, ip administered every 2 days starting from day 7 post-inoculation and measured on day 24; format: functional, organism-based; settings: time 18.0 day
[6] = Toxicity in BALB/c mouse xenografted with mouse 4T1 cells assessed as effect on liver morphology at 15 mg/kg, ip administered every 2 days starting from day 7 post-inoculation and measured on day 24 by Hematoxyin-eosin staining based analysis; format: organism-based; settings: in vivo, 432 h, time 18 day
HeLa [7] = assay: Downregulation of HIF-1alpha expression in human HeLa cells at 50 to 150 umol/L incubated under hypoxia condition for 4 hrs by immunofluorescence analysis; format: functional, cell-based; settings: dose 50-150 µmol/L
HeLa [8] = assay: Downregulation of HIF-1beta expression in human HeLa cells at 50 to 150 umol/L incubated under hypoxia conditions for 4 hrs by western blot analysis; format: functional, cell-based; settings: dose 50-150 µmol/L
HeLa [9] = assay: Downregulation of HIF-1 alpha expression in human HeLa cells at 50 to 150 umol/L incubated under normoxia conditions for 4 hrs in presence of CoCl2 by Western blot analysis; format: functional, cell-based; settings: dose 50-150 µmol/L
HeLa [10] = assay: Inhibition of colony formation in human HeLa cells incubated under hypoxia condition for 10 days; format: functional, cell-based; settings: dose 5-50 µmol/L, time 10.0 day
4T1 [11] = assay: Antitumor activity against mouse 4T1 cells xenografted in BALB/c mouse assessed as tumor growth inhibition at 15 mg/kg, iv administered every 2 days starting from day 7 post-inoculation and measured on day 24; format: functional, organism-based; settings: time 18.0 day
[12] = Toxicity in BALB/c mouse xenografted with mouse 4T1 cells assessed as effect on liver morphology at 15 mg/kg, iv administered every 2 days starting from day 7 post-inoculation and measured on day 24 by Hematoxyin-eosin staining based analysis; format: organism-based; settings: in vivo, 432 h, time 18 day
HeLa [13] = assay: Downregulation of HIF-1 alpha expression in human HeLa cells assessed as half life of the protein at 150 umol/L incubated under CoCl2-stimulated hypoxia conditions for 4 hrs followed by incubation with compound and protein translation inhibitor, CHX under normoxia conditions for 240 mins by Western blot analysis (reference value: 33.4 mins); format: functional, cell-based; settings: dose 150.0 µmol/L
[14] = molecular target: T1, Hypoxia-inducible factor 1-alpha (Homo sapiens, UniProt Q16665); assay: Inhibition of HIF-1alpha in human HeLa cells transfected with HRE-driven firefly luciferase gene pretreated with compound followed by incubation under normoxic condition for 1 hr followed by hypoxic condition for 12 hrs by dual luciferase reporter gene assay; format: cell-based
HeLa [15] = assay: Antiinvasive activity in human HeLa cells assessed as inhibition of cell invasion at 50 to 150 umol/L incubated under hypoxia condition for 36 hrs by transwell invasion assay; format: functional, cell-based; settings: dose 50-150 µmol/L
[16] = Toxicity in BALB/c mouse xenografted with mouse 4T1 cells assessed as effect on spleen morphology at 15 mg/kg, iv administered every 2 days starting from day 7 post-inoculation and measured on day 24 by Hematoxyin-eosin staining based analysis; format: organism-based; settings: in vivo, 432 h, time 18 day
[17] = Toxicity in BALB/c mouse xenografted with mouse 4T1 cells assessed as effect on kidney morphology at 15 mg/kg, iv administered every 2 days starting from day 7 post-inoculation and measured on day 24 by Hematoxyin-eosin staining based analysis; format: organism-based; settings: in vivo, 432 h, time 18 day
HeLa [18] = assay: Downregulation of HIF-1 alpha expression in human HeLa cells at 50 to 150 umol/L incubated under hypoxia conditions for 4 hrs by Western blot analysis; format: functional, cell-based; settings: dose 50-150 µmol/L
HeLa [19] = assay: Cytotoxicity against human HeLa cells assessed as cell viability at 6.3 to 150 umol/L incubated under hypoxia condition for 24 hrs by MTT assay; format: cell-based; settings: dose 6.3-150 µmol/L
[20] = Toxicity in BALB/c mouse xenografted with mouse 4T1 cells assessed as effect on heart morphology at 15 mg/kg, iv administered every 2 days starting from day 7 post-inoculation and measured on day 24 by Hematoxyin-eosin staining based analysis; format: organism-based; settings: in vivo, 432 h, time 18 day
[21] = molecular target: T1, Hypoxia-inducible factor 1-alpha; assay: Inhibition of HIF-1alpha in human HeLa cells assessed as reduction in VEGF mRNA level incubated under hypoxia condition for 12 hrs by RT-PCR analysis; format: cell-based; settings: dose 25-100 µmol/L
Target sequence in this assay (Q16665 whole entry, looked up): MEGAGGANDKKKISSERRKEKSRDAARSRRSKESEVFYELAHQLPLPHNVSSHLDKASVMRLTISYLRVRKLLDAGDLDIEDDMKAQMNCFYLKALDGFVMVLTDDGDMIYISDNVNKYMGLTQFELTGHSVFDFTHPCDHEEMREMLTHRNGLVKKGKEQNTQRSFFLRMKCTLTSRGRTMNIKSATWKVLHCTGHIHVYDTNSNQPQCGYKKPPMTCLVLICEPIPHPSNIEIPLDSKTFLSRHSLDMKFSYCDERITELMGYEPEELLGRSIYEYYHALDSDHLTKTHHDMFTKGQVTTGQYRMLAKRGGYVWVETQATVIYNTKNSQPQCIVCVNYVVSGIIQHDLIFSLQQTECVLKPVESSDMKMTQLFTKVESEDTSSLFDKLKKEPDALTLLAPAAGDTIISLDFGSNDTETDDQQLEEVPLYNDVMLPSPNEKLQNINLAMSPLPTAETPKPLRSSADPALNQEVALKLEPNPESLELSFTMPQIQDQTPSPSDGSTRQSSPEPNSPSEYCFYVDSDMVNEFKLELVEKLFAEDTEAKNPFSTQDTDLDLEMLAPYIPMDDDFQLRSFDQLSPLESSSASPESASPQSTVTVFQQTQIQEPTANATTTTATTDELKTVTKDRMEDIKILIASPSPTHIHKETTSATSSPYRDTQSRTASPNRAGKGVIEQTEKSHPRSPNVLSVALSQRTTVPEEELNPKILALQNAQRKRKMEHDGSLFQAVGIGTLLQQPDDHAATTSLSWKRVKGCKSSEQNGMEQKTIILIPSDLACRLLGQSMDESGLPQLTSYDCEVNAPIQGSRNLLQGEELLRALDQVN

HeLa [22] = assay: Inhibition of cell migration in human HeLa cells at 10 to 50 umol/L incubated under hypoxia condition for 36 hrs by wound healing assay; format: functional, cell-based; settings: dose 10-50 µmol/L
MCF7 = assay: Downregulation of HIF-1alpha expression in human MCF7 cells at 50 to 150 umol/L incubated under hypoxia condition for 4 hrs by Western blot analysis; format: functional, cell-based; settings: dose 50-150 µmol/L
HeLa [23] = assay: Cytotoxicity against human HeLa cells assessed as cell viability at 6.3 to 150 umol/L incubated under normoxic conditions for 24 hrs by MTT assay; format: cell-based; settings: dose 6.3-150 µmol/L
HeLa [24] = assay: Downregulation of HIF-1 alpha expression in human HeLa cells at 100 to 150 umol/L incubated under hypoxia conditions for 4 hrs in presence of proteasome inhibitor, MG132 by Western blot analysis; format: functional, cell-based; settings: dose 100-150 µmol/L
[25] = Toxicity in BALB/c mouse xenografted with mouse 4T1 cells assessed as effect on body weight at 15 mg/kg, iv administered every 2 days starting from day 7 post-inoculation and measured on day 24; format: organism-based; settings: in vivo, 432 h, time 18 day
4T1 [26] = assay: Downregulation of HIF-1alpha expression in mouse 4T1 cells at 50 to 150 umol/L incubated under hypoxia condition for 4 hrs by Western blot analysis; format: functional, cell-based; settings: dose 50-150 µmol/L
HUVEC = assay: Inhibition of angiogenesis in human HUVEC cells assessed as disruption of tube formation at 150 umol/L incubated under hypoxia condition for 6 hrs by Matrigel based analysis; format: functional, cell-based; settings: dose 150.0 µmol/L
4T1 [27] = assay: Downregulation of HIF-1alpha protein expression in tumor tissue of BALB/c mouse xenografted with mouse 4T1 cells at 15 mg/kg, iv administered every 2 days starting from day 7 post-inoculation and measured on day 24 by immunofluorescence analysis; format: functional, organism-based; settings: time 18.0 day

Structure (SMILES): C=CCNC1=C2C[C@@H](C)C[C@H](OC)[C@H](O)[C@@H](C)/C=C(\C)[C@H](OC(N)=O)[C@@H](OC)/C=C\C=C(/C)C(=O)NC(=CC1=O)C2=O (stereo in doubt) [TANESPIMYCIN]
Activity [1]: Non-Toxic
Activity [2]: Non-Toxic
Activity [3]: Non-Toxic
Activity [4]: Non-Toxic
Activity (4T1 [5]): Active
Activity [6]: Non-Toxic

IC50 [14]: 23 µM
inhibition ([14]; time 13.0 hrs): Dose-Dependent Effect
inhibition [21]: Dose-Dependent Effect
Structure (SMILES): O=C(C(O)c1ccc(O)cc1)n1cc(-c2ccc(O)cc2)c(-c2ccc(O)cc2)c1 (stereo not given) [7-(R/S)-HYDROXYLAMELLARIN A]
inhibition (HeLa [7]): Active
inhibition (HeLa [8]): inactive
inhibition (HeLa [9]): Active
inhibition (HeLa [10]): Dose-Dependent Effect
Activity (4T1 [11]): Active
Activity [12]: Non-Toxic
T1/2 (HeLa [13]): 10.4 min
Activity (HeLa [15]): Active
Activity [16]: Non-Toxic
Activity [17]: Non-Toxic
inhibition (HeLa [18]): Active
Activity (HeLa [19]): Non-Toxic
Activity [20]: Non-Toxic
inhibition (HeLa [22]): Active
inhibition (MCF7): Active
Activity (HeLa [23]): Non-Toxic
inhibition (HeLa [24]): Active
Activity [25]: Non-Toxic
inhibition (4T1 [26]): Active
inhibition (HUVEC): Active
inhibition (4T1 [27]): Active
